From patent US20130204033A1, “ANTIPROLIFERATIVE COMPOUNDS, CONJUGATES THEREOF, METHODS THEREFOR, AND USES THEREOF” (Medarex, Inc., priority 2009, published 2013)
Read-outs that look alike come from different tables or passages of the source.

What was measured:
Type in all cases: cell-based, human
A2058 [1] = experiment: ATP luminescence proliferation assay, A2058
Method: (§1) This example generally describes the procedures used to assay the antiproliferative activity of compounds of this invention or their conjugates. Human tumor cell lines were obtained from the American Type Culture Collection (ATCC), P.O. Box 1549, Manassas, Va. 20108, USA, and cultured according to instruction from the ATCC. Cells were seeded at 1.0×10^3 or 1.0×10^4 cells/well in 96-well plates for 3 h for ATP assays or ^3H thymidine assays, respectively. 1:3 serial dilutions of free (unconjugated) compounds or their conjugates were added to the wells. Plates were allowed to incubate for 24 to 72 h. The ^3H thymidine plates were pulsed with 1.0 μCi of ^3H-thymidine per well for the last 24 hours of the total incubation period, harvested, and read on a Top Count Scintillation Counter (Packard Instruments, Meriden, Conn.). ATP levels in the ATP plates were measured using the […]-GLO® Luminescent Cell Viability kit following the manufacturer's manual and read on a GLOMAX® 20/20 luminometer (both from Promega, Madison, Wis., USA). The EC50 values—the concentration at which an agent inhibits or reduces cell proliferation by 50% —were determined using PRISM™ software, version 4.0 (GraphPad Software, La Jolla, Calif., USA).
(§2) Using the ^3H thymidine or the ATP luminescence assay, or both, the activities of compounds of this invention were assayed against the following cancer cell lines: HCT-15 (colorectal cancer, multi-drug resistant (MDR)); Hep3B (liver cancer); LNCaP (prostate cancer, androgen receptor positive (AR^+)); MDA-MB-231 (breast cancer, estrogen receptor, progesterone receptor, and Her2 negative (triple negative)); A2058 (melanoma); U-87 MG (glioblastoma); NCI-H460 (NSCLC); A549 (NSCLC); HPAC (pancreatic cancer, primary); PC3 (prostate cancer, AR); BT474 (breast cancer, Her2 highly positive (Her2hi)); SKOV3 (ovarian cancer, Her2hi); 786-O (renal cancer); UO-31 (renal cancer, MDR); NCI-H740 (SCLC); DMS53 (SCLC); SK-BR3 (breast cancer, Her2hi); ZR-75 (breast cancer, estrogen receptor positive); OVCAR3 (ovarian cancer); HL-60 (APL); OVCAR8/Adr (ovarian cancer, MDR); CEM-Cl (ALL); Nomo-1 (AML); RPMI-8226 (MM)); Raji (lymphoma); SW-480 (colorectal cancer, metastatic); SW-620 (colorectal cancer); and H226 (lung cancer). (Not all compounds were assayed against all cell lines.)
(§3) Table 3 provides the data for the ATP luminescence proliferation assays, with an incubation period of 48, 72, or 96 h, as noted.

CEM-Cl = experiment: ATP luminescence proliferation assay, CEM-C1
Method: as §1, §2, §3

A549 = experiment: 3H thymidine proliferation assay, A549
Method: as §1, §2
(§4) Table 2 provides the data for proliferation assays using the ^3H thymidine method, with an incubation period of 72 h.

SW-620 = experiment: ATP luminescence proliferation assay, SW-620
Method: as §1, §2, §3

BT474 [2] = experiment: 3H thymidine proliferation assay, BT474
Method: as §1, §2, §4

BT474 [3] = experiment: ATP luminescence proliferation assay, BT474
Method: as §1, §2, §3

PC3 = experiment: 3H thymidine proliferation assay, PC3
Method: as §1, §2, §4

HCT-15 [4] = experiment: 3H thymidine proliferation assay, HCT-15
Method: as §1, §2, §4

A2058 [5] = experiment: 3H thymidine proliferation assay, A2058; conditions: 3H thymidine method, 72 h incubation
Method: as §1, §2, §4

H740 = experiment: 3H thymidine proliferation assay, H740
Method: as §1, §2, §4

NCI-H460 = experiment: 3H thymidine proliferation assay, NCI-H460
Method: as §1, §2, §4

HL-60 = experiment: 3H thymidine proliferation assay, HL-60
Method: as §1, §2, §4

OVCAR8 = experiment: 3H thymidine proliferation assay, OVCAR8
Method: as §1, §2, §4

UO-31 = experiment: 3H thymidine proliferation assay, UO-31
Method: as §1, §2, §4

DMS53 = experiment: 3H thymidine proliferation assay, DMS53
Method: as §1, §2, §4

HCT-15 [6] = experiment: ATP luminescence proliferation assay, HCT-15
Method: as §1, §2, §3

Raji = experiment: 3H thymidine proliferation assay, Raji
Method: as §1, §2, §4

Hep3B = experiment: ATP luminescence proliferation assay, Hep3B
Method: as §1, §2, §3

Nomo-1 = experiment: 3H thymidine proliferation assay, Nomo-1
Method: as §1, §2, §4

786-O = experiment: 3H thymidine proliferation assay, 786-O
Method: as §1, §2, §4

[7] = Homo sapiens, A2058, 48 h, read-out: EC50 A2058 (48 h), ATP luminescence, A2058, 48 h incubation
[8] = Homo sapiens, CEM/C1, 72 h, read-out: EC50 CEM-C1 (72 h), ATP luminescence, CEM-C1, 72 h incubation
[9] = Homo sapiens, A549, read-out: EC50, A549, 3H thymidine method, 72 h incubation
[10] = Homo sapiens, SW-620, 96 h, read-out: EC50 SW-620 (96 h), ATP luminescence, SW-620, 96 h incubation
[11] = Homo sapiens, BT-474, read-out: EC50, BT474, 3H thymidine method, 72 h incubation
[12] = Homo sapiens, BT-474, 48 h, read-out: EC50 BT474 (48 h), ATP luminescence, BT474, 48 h incubation
[13] = Homo sapiens, PC-3, read-out: EC50, PC3, 3H thymidine method, 72 h incubation
[14] = Homo sapiens, HCT-15, read-out: EC50, HCT-15, 3H thymidine method, 72 h incubation
[15] = Homo sapiens, read-out: EC50, H740, 3H thymidine method, 72 h incubation
[16] = Homo sapiens, NCI-H460, read-out: EC50, NCI-H460, 3H thymidine method, 72 h incubation
[17] = Homo sapiens, HL-60, read-out: EC50, HL-60, 3H thymidine method, 72 h incubation
[18] = Homo sapiens, OVCAR-8, read-out: EC50, OVCAR8, 3H thymidine method, 72 h incubation
[19] = Homo sapiens, UO-31, read-out: EC50, UO-31, 3H thymidine method, 72 h incubation
[20] = Homo sapiens, DMS-53, read-out: EC50, DMS53, 3H thymidine method, 72 h incubation
[21] = Homo sapiens, HCT-15, 48 h, read-out: EC50 HCT-15 (48 h), ATP luminescence, HCT-15, 48 h incubation
[22] = Homo sapiens, Raji, read-out: EC50, Raji, 3H thymidine method, 72 h incubation
[23] = Homo sapiens, 48 h, read-out: EC50 Hep3B (48 h), ATP luminescence, Hep3B, 48 h incubation
[24] = Homo sapiens, NOMO-1, read-out: EC50, Nomo-1, 3H thymidine method, 72 h incubation
[25] = ATP luminescence, CEM-C1, 72 h incubation, read-out: EC50 CEM-C1 (72 h)
[26] = 3H thymidine method, 72 h incubation, read-out: EC50, A549
[27] = ATP luminescence, SW-620, 96 h incubation, read-out: EC50 SW-620 (96 h)
[28] = 3H thymidine method, 72 h incubation, read-out: EC50, BT474
[29] = 3H thymidine method, 72 h incubation, read-out: EC50, PC3
[30] = 3H thymidine method, 72 h incubation, read-out: EC50, HCT-15
[31] = 3H thymidine method, 72 h incubation, read-out: EC50, H740
[32] = 3H thymidine method, 72 h incubation, read-out: EC50, 786-O
[33] = 3H thymidine method, 72 h incubation, read-out: EC50, NCI-H460
[34] = 3H thymidine method, 72 h incubation, read-out: EC50, HL-60
[35] = 3H thymidine method, 72 h incubation, read-out: EC50, OVCAR8
[36] = 3H thymidine method, 72 h incubation, read-out: EC50, UO-31
[37] = 3H thymidine method, 72 h incubation, read-out: EC50, DMS53
[38] = 3H thymidine method, 72 h incubation, read-out: EC50, Raji
[39] = 3H thymidine method, 72 h incubation, read-out: EC50, Nomo-1

Row | Structure (SMILES) | EC50 (A2058 [1]; [7]) | EC50 (CEM-Cl; [8]) | EC50 (A549; [9]) | EC50 (SW-620; [10]) | EC50 (BT474 [2]; [11]) | EC50 (BT474 [3]; [12]) | EC50 (PC3; [13]) | EC50 (HCT-15 [4]; [14]) | EC50 (A2058 [5]; Homo sapiens, A2058) | EC50 (H740; [15]) | EC50 (NCI-H460; [16]) | EC50 (HL-60; [17]) | EC50 (OVCAR8; [18]) | EC50 (UO-31; [19]) | EC50 (DMS53; [20]) | EC50 (HCT-15 [6]; [21]) | EC50 (Raji; [22]) | EC50 (Hep3B; [23]) | EC50 (Nomo-1; [24]) | EC50 (CEM-Cl; [25]) | also measured
1 | CC[C@H](C)[C@H](NC(=O)[C@H]1CCCCN1C)C(=O)N(C)[C@H](C[C@@H](OC)c1nc(C(=O)NC(Cc2ccccc2)C[C@H](C)C(=O)O)cs1)C(C)C (some centres unmarked) [Compound 15] | 3.5 nM | 2.6 nM | 2.1 nM | 3.7 nM | 7.1 nM | 3.5 nM | 1.7 nM | 67 nM | 1.6 nM | 2.3 nM | 2 nM | 0.6 nM | 423 nM | 15 nM | 37 nM | 40 nM | 0.47 nM | 6.3 nM | 2.3 nM | – | –
2 | CCCC(NC(=O)c1csc([C@@H](C[C@H](C(C)C)N(C)C(=O)[C@@H](NC(=O)[C@H]2CCCCN2C)[C@@H](C)CC)OC)n1)C(=O)OC (some centres unmarked) [Compound 17] | 30 nM | 26 nM | > 100 nM | 65 nM | > 100 nM | 23 nM | 82 nM | 392 nM | > 100 nM | 32 nM | > 100 nM | 17 nM | 2970 nM | > 100 nM | > 100 nM | 443 nM | 53 nM | > 100 nM | 6.8 nM | – | EC50 (786-O; Homo sapiens, 786-0, read-out: EC50, 786-O, 3H thymidine method, 72 h incubation): 32 nM
3 | CC[C@H](C)[C@H](NC(=O)[C@H]1CCCCN1C)C(=O)N(COC(=O)CC(C)C)[C@H](C[C@@H](OC(C)=O)c1nc(C(=O)N[C@@H](Cc2ccccc2)C[C@H](C)C(=O)O)cs1)C(C)C [Tub D, tubulysin D, reference compound] | – | – | – | – | – | – | – | – | – | – | – | – | – | – | – | – | – | – | – | 0.003 nM | EC50 (A2058 [1]; ATP luminescence, A2058, 72 h incubation, read-out: EC50 A2058 (72 h)): 0.0064 nM; EC50 (A549; [26]): 0.014 nM; EC50 (SW-620; [27]): 0.0058 nM; EC50 (BT474 [2]; [28]): 0.51 nM; EC50 (BT474 [3]; ATP luminescence, BT474, 72 h incubation, read-out: EC50 BT474 (72 h)): 0.021 nM; EC50 (PC3; [29]): 0.038 nM; EC50 (HCT-15 [4]; [30]): 0.062 nM; EC50 (H740; [31]): 2.2 nM; EC50 (786-O; [32]): 0.15 nM; EC50 (NCI-H460; [33]): 0.032 nM; EC50 (HL-60; [34]): 0.032 nM; EC50 (OVCAR8; [35]): 0.17 nM; EC50 (UO-31; [36]): 0.1 nM; EC50 (DMS53; [37]): 0.21 nM; EC50 (HCT-15 [6]; ATP luminescence, HCT-15, 72 h incubation, read-out: EC50 HCT-15 (72 h)): 0.014 nM; EC50 (Raji; [38]): 0.013 nM; EC50 (Hep3B; ATP luminescence, 48 h incubation, read-out: EC50 Hep3B (48 h)): 0.0012 nM; EC50 (Nomo-1; [39]): 0.042 nM
4 | CC[C@H](C)[C@H](NC(=O)[C@H]1CCCCN1C)C(=O)N(C)[C@H](C[C@@H](OC)c1nc(C(=O)N[C@@H](Cc2ccccc2)C(=O)OC)cs1)C(C)C [Compound 16] | – | – | – | – | – | – | – | – | – | – | – | – | – | – | – | – | – | – | – | 2.5 nM | EC50 (A2058 [1]; ATP luminescence, A2058, 48 h incubation, read-out: EC50 A2058 (48 h)): 30 nM; EC50 (A549; [26]): > 100 nM; EC50 (SW-620; [27]): 29 nM; EC50 (BT474 [2]; [28]): > 100 nM; EC50 (BT474 [3]; ATP luminescence, BT474, 48 h incubation, read-out: EC50 BT474 (48 h)): 19 nM; EC50 (PC3; [29]): > 100 nM; EC50 (HCT-15 [4]; [30]): 284 nM; EC50 (A2058 [5]): > 100 nM; EC50 (H740; [31]): > 100 nM; EC50 (786-O; [32]): 19 nM; EC50 (NCI-H460; [33]): > 100 nM; EC50 (HL-60; [34]): 8.9 nM; EC50 (OVCAR8; [35]): 1870 nM; EC50 (UO-31; [36]): > 100 nM; EC50 (DMS53; [37]): > 100 nM; EC50 (HCT-15 [6]; ATP luminescence, HCT-15, 48 h incubation, read-out: EC50 HCT-15 (48 h)): 157 nM; EC50 (Raji; [38]): 28 nM; EC50 (Nomo-1; [39]): 1.8 nM
